# Experimental data taken from PMC11502502 (Nature cancer, 2024).
# “And” between values parts separate entries of the source, which are not always exact repeats. Identical values can stand only once.
# Columns and labels:
# Format in all cases: in vivo
# [1] = system: THP-1 (AML) xenografted mice; assay: THP-1 AML xenograft efficacy; set-up: anti-tumor efficacy in THP-1 (AML)-tumor bearing mice, individual measurements: unit not given here
# [2] = system: MV-4–11 (AML)-xenografted mice; assay: MV-4–11 AML xenograft efficacy and overall survival; set-up: anti-tumor efficacy in MV-4-11 (AML)-tumor bearing mice in combination with SoC (tumor measurement per animal): unit not given here; conditions: for Overall survival of MV-4-11 (AML)-tumor bearing mice: BRD-810 50 mg/kg; for anti-tumor efficacy in MV-4-11 (AML)-tumor bearing mice in combination with SoC (tumor measurement per animal): individual animals, BRD-810 50mg/kg
# SNU398 (HCC) xenografts = assay: SNU398 liver cancer xenograft efficacy; conditions: SNU-398 (HCC) tumor bearing mice, Regorafinib 30 mg/kg qd po, one value per animal
compound,measurement,setting,value
CC1(C)CCC(CN2CCN(c3ccc(C(=O)NS(=O)(=O)c4ccc(NCC5CCOCC5)c([N+](=O)[O-])c4)c(Oc4cnc5[nH]ccc5c4)c3)CC2)=C(c2ccc(Cl)cc2)C1 [venetoclax],"Antitumor efficacy, single agent","[1]; 100 mg kg^−1 orally, daily",neither the Bcl-2 inhibitor venetoclax nor cytarabine showed appreciable single-agent efficacy
same,"anti-tumor efficacy in THP-1 (AML)-tumor bearing mice, individual measurements","[1]; Venetoclax, day 1 post treatment start, animals #5001-#5010",36.27 and 38.57 and 29.6 and 32.89 and 34.28 and 28.35 and 32.76 and 34.15 and 38.81 and 36.79
same,"anti-tumor efficacy in THP-1 (AML)-tumor bearing mice, individual measurements","[1]; Venetoclax, day 3 post treatment start, animals #5001-#5010",46.08 and 62.31 and 36.23 and 49.99 and 71.57 and 33.25 and 37.51 and 51.73 and 48.97 and 53.06
same,"anti-tumor efficacy in THP-1 (AML)-tumor bearing mice, individual measurements","[1]; Venetoclax, day 6 post treatment start, animals #5001-#5010",58.2 and 76.5 and 34.06 and 66.44 and 87.06 and 33.28 and 39.03 and 72.1 and 63 and 57.59
same,"anti-tumor efficacy in THP-1 (AML)-tumor bearing mice, individual measurements","[1]; Venetoclax, day 8 post treatment start, animals #5001-#5010",70.38 and 85.8 and 36.3 and 78.87 and 103.9 and 36.38 and 41.14 and 85.31 and 91.47 and 80.8
same,"anti-tumor efficacy in THP-1 (AML)-tumor bearing mice, individual measurements","[1]; Venetoclax, day 10 post treatment start, animals #5001-#5010",100.62 and 113 and 44.66 and 100.81 and 143.73 and 36.12 and 44.28 and 122.17 and 124.4 and 110.66
same,"anti-tumor efficacy in THP-1 (AML)-tumor bearing mice, individual measurements","[1]; Venetoclax, day 13 post treatment start, animals #5001-#5010",129.99 and 188.46 and 53.9 and 147.24 and 211.83 and 41.12 and 60.34 and 168.23 and 177.94 and 148.93
same,Overall survival of MV-4-11 (AML)-tumor bearing mice,[2]; day 0 post treatment start,100
same,Overall survival of MV-4-11 (AML)-tumor bearing mice,[2]; day 1 post treatment start,100
same,anti-tumor efficacy in MV-4-11 (AML)-tumor bearing mice in combination with SoC (tumor measurement per animal),[2]; day 1 post treatment start,33.13 and 28.19 and 34.15 and 35.82 and 29.42 and 37.09 and 44.34 and 37.28 and 33.74 and 41.97
same,Overall survival of MV-4-11 (AML)-tumor bearing mice,[2]; day 4 post treatment start,100
same,anti-tumor efficacy in MV-4-11 (AML)-tumor bearing mice in combination with SoC (tumor measurement per animal),[2]; day 4 post treatment start,32.39 and 37.39 and 43.94 and 50.14 and 32.53 and 44.14 and 52.92 and 48.8 and 41.66 and 49.99
same,Overall survival of MV-4-11 (AML)-tumor bearing mice,[2]; day 8 post treatment start,100
same,anti-tumor efficacy in MV-4-11 (AML)-tumor bearing mice in combination with SoC (tumor measurement per animal),[2]; day 8 post treatment start,41.04 and 57.44 and 59.24 and 62.99 and 49.55 and 52.42 and 59.83 and 53.52 and 48.45 and 66.98
same,Overall survival of MV-4-11 (AML)-tumor bearing mice,[2]; day 11 post treatment start,100
same,anti-tumor efficacy in MV-4-11 (AML)-tumor bearing mice in combination with SoC (tumor measurement per animal),[2]; day 11 post treatment start,47.19 and 72.26 and 75.92 and 72.38 and 72.25 and 70.02 and 85.2 and 60.52 and 70.23 and 97.04
same,Overall survival of MV-4-11 (AML)-tumor bearing mice,[2]; day 15 post treatment start,100
same,anti-tumor efficacy in MV-4-11 (AML)-tumor bearing mice in combination with SoC (tumor measurement per animal),[2]; day 15 post treatment start,63.44 and 101.62 and 98.93 and 111.48 and 113.46 and 108.85 and 111.46 and 76.94 and 80.71 and 124.01
same,Overall survival of MV-4-11 (AML)-tumor bearing mice,[2]; day 16 post treatment start,100
same,anti-tumor efficacy in MV-4-11 (AML)-tumor bearing mice in combination with SoC (tumor measurement per animal),[2]; day 16 post treatment start,66 and 108.03 and 100.41 and 123.76 and 112.88 and 118.57 and 116.35 and 89.12 and 87.16 and 125.05
same,Overall survival of MV-4-11 (AML)-tumor bearing mice,[2]; day 17 post treatment start,0
same,anti-tumor efficacy in MV-4-11 (AML)-tumor bearing mice in combination with SoC (tumor measurement per animal),[2]; day 17 post treatment start,74.19 and 130.91 and 105.55 and 136.78 and 132.34 and 126.42 and 134.13 and 95.37 and 110.48 and 139.48
same,Overall survival of MV-4-11 (AML)-tumor bearing mice,[2]; day 19 post treatment start,0
same,Overall survival of MV-4-11 (AML)-tumor bearing mice,[2]; day 22 post treatment start,0
same,Overall survival of MV-4-11 (AML)-tumor bearing mice,[2]; day 23 post treatment start,0
same,Overall survival of MV-4-11 (AML)-tumor bearing mice,[2]; day 24 post treatment start,0
same,Overall survival of MV-4-11 (AML)-tumor bearing mice,[2]; day 25 post treatment start,0
same,Overall survival of MV-4-11 (AML)-tumor bearing mice,[2]; day 28 post treatment start,0
same,Overall survival of MV-4-11 (AML)-tumor bearing mice,[2]; day 30 post treatment start,0
same,Overall survival of MV-4-11 (AML)-tumor bearing mice,[2]; day 32 post treatment start,0
same,Overall survival of MV-4-11 (AML)-tumor bearing mice,[2]; day 34 post treatment start,0
same,Overall survival of MV-4-11 (AML)-tumor bearing mice,[2]; day 37 post treatment start,0
same,Overall survival of MV-4-11 (AML)-tumor bearing mice,[2]; day 39 post treatment start,0
same,Overall survival of MV-4-11 (AML)-tumor bearing mice,[2]; day 41 post treatment start,0
same,Overall survival of MV-4-11 (AML)-tumor bearing mice,[2]; day 44 post treatment start,0
same,Overall survival of MV-4-11 (AML)-tumor bearing mice,[2]; day 46 post treatment start,0
same,Overall survival of MV-4-11 (AML)-tumor bearing mice,[2]; day 48 post treatment start,0
same,Overall survival of MV-4-11 (AML)-tumor bearing mice,[2]; day 51 post treatment start,0
same,Overall survival of MV-4-11 (AML)-tumor bearing mice,[2]; day 53 post treatment start,0
Nc1ncn([C@@H]2O[C@H](CO)[C@@H](O)[C@H]2O)c(=O)n1 [Azacytidine],Overall survival of MV-4-11 (AML)-tumor bearing mice,[2]; day 0 post treatment start,100
same,Overall survival of MV-4-11 (AML)-tumor bearing mice,[2]; day 1 post treatment start,100
same,anti-tumor efficacy in MV-4-11 (AML)-tumor bearing mice in combination with SoC (tumor measurement per animal),[2]; day 1 post treatment start,37.66 and 36.25 and 41.68 and 30.5 and 27.18 and 34.36 and 33.31 and 32.32 and 36.01 and 43.7
same,Overall survival of MV-4-11 (AML)-tumor bearing mice,[2]; day 4 post treatment start,100
same,anti-tumor efficacy in MV-4-11 (AML)-tumor bearing mice in combination with SoC (tumor measurement per animal),[2]; day 4 post treatment start,54.55 and 56.25 and 56.22 and 40.13 and 37.55 and 44.2 and 45.16 and 42.15 and 44.53 and 58.86
same,Overall survival of MV-4-11 (AML)-tumor bearing mice,[2]; day 8 post treatment start,100
same,anti-tumor efficacy in MV-4-11 (AML)-tumor bearing mice in combination with SoC (tumor measurement per animal),[2]; day 8 post treatment start,65.52 and 65.46 and 68.31 and 53.62 and 40.92 and 60.68 and 62.4 and 50.31 and 59.65 and 77.78
same,Overall survival of MV-4-11 (AML)-tumor bearing mice,[2]; day 11 post treatment start,100
same,anti-tumor efficacy in MV-4-11 (AML)-tumor bearing mice in combination with SoC (tumor measurement per animal),[2]; day 11 post treatment start,89.02 and 75.69 and 101.46 and 67.13 and 49.48 and 79.37 and 79.77 and 55.4 and 81.03 and 99.97
same,Overall survival of MV-4-11 (AML)-tumor bearing mice,[2]; day 15 post treatment start,100
same,anti-tumor efficacy in MV-4-11 (AML)-tumor bearing mice in combination with SoC (tumor measurement per animal),[2]; day 15 post treatment start,108.19 and 101.3 and 133.05 and 77.44 and 61.88 and 97.99 and 123.49 and 81.45 and 115.12 and 117.74
same,Overall survival of MV-4-11 (AML)-tumor bearing mice,[2]; day 16 post treatment start,100
same,anti-tumor efficacy in MV-4-11 (AML)-tumor bearing mice in combination with SoC (tumor measurement per animal),[2]; day 16 post treatment start,125.36 and 108.14 and 139.95 and 80.65 and 62.33 and 102.82 and 127.03 and 91.37 and 119.07 and 128.51
same,Overall survival of MV-4-11 (AML)-tumor bearing mice,[2]; day 17 post treatment start,100
same,anti-tumor efficacy in MV-4-11 (AML)-tumor bearing mice in combination with SoC (tumor measurement per animal),[2]; day 17 post treatment start,137.71 and 107.49 and 162.36 and 100.14 and 70.25 and 118.23 and 133.41 and 87.57 and 140.74 and 152.32
same,Overall survival of MV-4-11 (AML)-tumor bearing mice,[2]; day 19 post treatment start,0
same,Overall survival of MV-4-11 (AML)-tumor bearing mice,[2]; day 22 post treatment start,0
same,Overall survival of MV-4-11 (AML)-tumor bearing mice,[2]; day 23 post treatment start,0
same,Overall survival of MV-4-11 (AML)-tumor bearing mice,[2]; day 24 post treatment start,0
same,Overall survival of MV-4-11 (AML)-tumor bearing mice,[2]; day 25 post treatment start,0
same,Overall survival of MV-4-11 (AML)-tumor bearing mice,[2]; day 28 post treatment start,0
same,Overall survival of MV-4-11 (AML)-tumor bearing mice,[2]; day 30 post treatment start,0
same,Overall survival of MV-4-11 (AML)-tumor bearing mice,[2]; day 32 post treatment start,0
same,Overall survival of MV-4-11 (AML)-tumor bearing mice,[2]; day 34 post treatment start,0
same,Overall survival of MV-4-11 (AML)-tumor bearing mice,[2]; day 37 post treatment start,0
same,Overall survival of MV-4-11 (AML)-tumor bearing mice,[2]; day 39 post treatment start,0
same,Overall survival of MV-4-11 (AML)-tumor bearing mice,[2]; day 41 post treatment start,0
same,Overall survival of MV-4-11 (AML)-tumor bearing mice,[2]; day 44 post treatment start,0
same,Overall survival of MV-4-11 (AML)-tumor bearing mice,[2]; day 46 post treatment start,0
same,Overall survival of MV-4-11 (AML)-tumor bearing mice,[2]; day 48 post treatment start,0
same,Overall survival of MV-4-11 (AML)-tumor bearing mice,[2]; day 51 post treatment start,0
same,Overall survival of MV-4-11 (AML)-tumor bearing mice,[2]; day 53 post treatment start,0
Nc1ccn([C@@H]2O[C@H](CO)[C@@H](O)[C@@H]2O)c(=O)n1 [cytarabine],"Antitumor efficacy, single agent","[1]; 45 mg kg^−1 subcutaneous, 3 days on, 4 days off",neither the Bcl-2 inhibitor venetoclax nor cytarabine showed appreciable single-agent efficacy
same,"anti-tumor efficacy in THP-1 (AML)-tumor bearing mice, individual measurements","[1]; Cytarabine, day 1 post treatment start, animals #3001-#3010",34.55 and 34.13 and 35.27 and 36.61 and 37.97 and 29.56 and 32.2 and 26.85 and 39.7 and 33.08
same,"anti-tumor efficacy in THP-1 (AML)-tumor bearing mice, individual measurements","[1]; Cytarabine, day 3 post treatment start, animals #3001-#3010",56.73 and 43.71 and 46.59 and 40.5 and 59.56 and 37.55 and 48.92 and 32.47 and 41.3 and 50.46
same,"anti-tumor efficacy in THP-1 (AML)-tumor bearing mice, individual measurements","[1]; Cytarabine, day 6 post treatment start, animals #3001-#3010",60.86 and 46.12 and 47.28 and 41.77 and 70.74 and 42.28 and 63.75 and 27.68 and 36.96 and 52.92
same,"anti-tumor efficacy in THP-1 (AML)-tumor bearing mice, individual measurements","[1]; Cytarabine, day 8 post treatment start, animals #3001-#3010",80.75 and 48.31 and 57.33 and 37.06 and 69.84 and 40.98 and 72.57 and 28.68 and 37.62 and 62.2
same,"anti-tumor efficacy in THP-1 (AML)-tumor bearing mice, individual measurements","[1]; Cytarabine, day 10 post treatment start, animals #3001-#3010",87.52 and 55.21 and 72.45 and 39.84 and 85.66 and 45.49 and 94.07 and 29.37 and 34.83 and 74.1
same,"anti-tumor efficacy in THP-1 (AML)-tumor bearing mice, individual measurements","[1]; Cytarabine, day 13 post treatment start, animals #3001-#3010",101.88 and 64.15 and 91.89 and 43.02 and 99.25 and 47.84 and 115.35 and 31.51 and 35.25 and 76.99
CNC(=O)c1cc(Oc2ccc(NC(=O)Nc3ccc(Cl)c(C(F)(F)F)c3)c(F)c2)ccn1 [Regorafinib],"anti-tumor efficacy, individual measurements",SNU398 (HCC) xenografts; day 1 post treatment start,63.45 and 60.8 and 64.88 and 117.14 and 74.08 and 111.9 and 95.85
same,"anti-tumor efficacy, individual measurements",SNU398 (HCC) xenografts; day 3 post treatment start,72 and 76.25 and 72.91 and 127.45 and 81.33 and 119.22 and 106.01
same,"anti-tumor efficacy, individual measurements",SNU398 (HCC) xenografts; day 7 post treatment start,83.42 and 75.99 and 78.47 and 145.78 and 87.63 and 117.37
same,"anti-tumor efficacy, individual measurements",SNU398 (HCC) xenografts; day 8 post treatment start,100.66 and 81.04 and 87.14 and 150.75 and 99.27 and 129.84
same,"anti-tumor efficacy, individual measurements",SNU398 (HCC) xenografts; day 10 post treatment start,89.75 and 86.89 and 87.88 and 152.45 and 93.82 and 132.88
same,"anti-tumor efficacy, individual measurements",SNU398 (HCC) xenografts; day 13 post treatment start,96.32 and 85.08 and 98.92 and 145.11 and 103.54 and 167.23
